Results from paper PMC7575488, “Phase 1 dose-escalation study of a novel oral PI3K/mTOR dual inhibitor, LY3023414, in patients with cancer” (Investigational New Drugs, 2020).
Like-named read-outs stand apart in the source and are kept apart here. Marks after values point to notes of the source that are not given here.

Assays:
[1] = Blood pharmacokinetics (dried blood spot LC-MS/MS, non-compartmental analysis); type: in vivo, human; details: for CL/F: based on AUC0-∞; for CL/F (CLss/F): Cycle 1 Day 15 (multiple dose, steady state); for Tmax / half-life / Vd/F / AUC(0-inf) / Cmax / AUC(0-t): human, oral; for Vd/F: read-out: Vz/F; for AUC(0-t): tlast 12 h (AUCτ), read-out: AUC0-tlast
Experimental: (§1) For PK assessment, blood samples were collected at pre dose and 0.5, 1, 2, 4, 8, and 12 h post dose on 2 occasions: (i) on Day 1 of Cycle 1 (single dose), and (ii) on Day 15 of Cycle 1 (multiple dose). For PD assessment, blood samples were collected at pre dose and 0.5, 1, 2, and 4 h post dose on 2 occasions: (i) on Day 1 of Cycle 1 (single dose), and (ii) on Day 15 of Cycle 1 (multiple dose).
Blood concentrations of LY3023414 were assayed using a validated dried blood spot liquid chromatography-mass spectrometry/mass spectrometry method at a designated laboratory. The PK parameter estimates for LY3023414 were calculated by standard non-compartmental methods of analysis using Phoenix WinNonlin® 8.0 (Certara, L.P.; Princeton, NJ, USA). The primary parameters for analysis were maximum observed blood concentration (Cmax), time of Cmax (tmax), area under the blood concentration-time curve from time zero to the last measurable blood concentration (AUC0-tlast), and area under the blood concentration-time curve from time zero to infinity (AUC0-∞) of LY3023414. Other non-compartmental parameters, such as half-life (t1/2), apparent total body clearance (CL/F) on Cycle 1 Day 1, apparent total body clearance at steady state (CLss/F) on Cycle 1 Day 15, and apparent volume of distribution during the terminal phase (Vz/F), were also assessed.

[2] = tested on: PI3K/mTOR kinase activity; assay: Pharmacodynamics: fasting glucose and C-peptide change from baseline; type: in vivo, human; details: baseline to 4 h post dose
Experimental: The primary objective of this study was to evaluate the tolerability and safety of LY3023414 up to the global recommended dose in Japanese patients with advanced malignancies. The secondary objectives were to evaluate PK and to document antitumor activity of LY3023414. The exploratory objective was to evaluate pharmacodynamic (PD) effects of LY3023414 on PI3K/mTOR kinase activity.
as §1
Pharmacodynamic parameters (glucose and C-peptide) were analyzed for all patients. The mean percentage change from baseline against nominal time was provided for glucose and C-peptide.

advanced malignancies = assay: Antitumor activity, tumor response by RECIST v1.1; type: in vivo, human
Experimental: Tumor response was assessed by computed tomography scans or magnetic resonance imaging according to RECIST v1.1 [18] at baseline and thereafter every 6 weeks until patients discontinued from the study. The assessment included all patients who received ≥1 dose of study drug.

PI3K/mTOR = tested on: PI3K/mTOR; parameters: method as in PMID 29636360; details: at doses ≥150 mg; cited from earlier work
CYP3A4 = tested on: CYP3A4; parameters: method as in PMID 29636360; details: drug-drug interaction analysis; cited from earlier work
[3] = parameters: method as in PMID 29636360; details: across a wide pH range; cited from earlier work
[4] = tested on: PI3K/AKT/mTOR downstream pathway; parameters: method as in PMID 27439478; details: in vitro; cited from earlier work
tumor xenograft models = details: cited from earlier work
[5] = cited from earlier work
[6] = whole blood, 150 mg, 150 mg BID, Cycle 1 Day 1 (single dose), blood, N = 3, geometric mean (% CV)
[7] = whole blood, 150 mg, 150 mg BID, Cycle 1 Day 15 (multiple dose), blood, N = 3, geometric mean (% CV)
[8] = whole blood, 200 mg, 200 mg BID, Cycle 1 Day 1 (single dose), blood, N = 9, geometric mean (% CV)
[9] = whole blood, 200 mg, 200 mg BID, Cycle 1 Day 15 (multiple dose), blood, N = 7, geometric mean (% CV)

For `CO[C@@H](C)Cn1c(=O)n(C)c2cnc3ccc(-c4cncc(C(C)(C)O)c4)cc3c21` [LY3023414], the CL/F ([1]; 150 mg BID, Cycle 1 Day 1 (single dose), N = 3, geometric mean (% CV)) was 49.2 (19) L/hr, the “CL/F (CLss/F)” value ([1]; 150 mg BID, N = 3, geometric mean (% CV)) was 30.4 (45) L/hr and the CL/F ([1]; 200 mg BID, Cycle 1 Day 1 (single dose), N = 8, geometric mean (% CV 29)) was 48.5^c (29) L/hr. For the same compound, the “CL/F (CLss/F)” value ([1]; 200 mg BID, N = 7, geometric mean (% CV)) was 48.6 (33) L/hr, the Tmax ([1]; whole blood (dried blood spot), 200 mg, post administration, each dose level (150 and 200 mg), read-out: median tmax) was 1 to 3 h and the half-life ([1]; whole blood (dried blood spot), Days 1 and 15 in Cycle 1, each dose level, read-out: geometric mean t1/2 (converted)) was ~2 h. It also gave a Vd/F ([1]; whole blood, 150 mg, 150 mg BID, Cycle 1 Day 1 (single dose), N = 3, geometric mean (% CV)) of 113 L, an AUC(0-inf) [1, 6] of 3050 ng·h/mL and a Cmax [1, 6] of 792 ng/mL. It also gave a half-life ([1]; whole blood, 150 mg, 150 mg BID, Cycle 1 Day 1 (single dose), blood, N = 3, geometric mean (range), read-out: t1/2 (converted)) of 1.59 h, a Tmax ([1]; whole blood, 150 mg, 150 mg BID, Cycle 1 Day 1 (single dose), blood, N = 3, median (range), read-out: tmax) of 2.93 h and an AUC(0-t) [1, 6] of 3000 ng·h/mL. The Vd/F ([1]; whole blood, 150 mg, 150 mg BID, Cycle 1 Day 15 (multiple dose), N = 3, geometric mean (% CV)) was 79.3 L, the AUC(0-inf) [1, 7] was 5010 ng·h/mL and the Cmax [1, 7] was 1570 ng/mL. For the same compound, the half-life ([1]; whole blood, 150 mg, 150 mg BID, Cycle 1 Day 15 (multiple dose), blood, N = 3, geometric mean (range), read-out: t1/2 (converted)) was 1.81 h, the Tmax ([1]; whole blood, 150 mg, 150 mg BID, Cycle 1 Day 15 (multiple dose), blood, N = 3, median (range), read-out: tmax) was 1 h and the AUC(0-t) [1, 7] was 4920 ng·h/mL. It also gave a Vd/F ([1]; whole blood, 200 mg, 200 mg BID, Cycle 1 Day 1 (single dose), N = 8, geometric mean (% CV 35)) of 136 L, an AUC(0-inf) ([1]; whole blood, 200 mg, 200 mg BID, Cycle 1 Day 1 (single dose), blood, N = 8, geometric mean (% CV 29)) of 4120 ng·h/mL and a half-life ([1]; whole blood, 200 mg, 200 mg BID, Cycle 1 Day 1 (single dose), blood, N = 8, geometric mean (range 1.52–3.15), read-out: t1/2 (converted)) of 1.94 h. It also gave a Cmax [1, 8] of 1020 ng/mL, a Tmax ([1]; whole blood, 200 mg, 200 mg BID, Cycle 1 Day 1 (single dose), blood, N = 9, median (range), read-out: tmax) of 1.95 h and an AUC(0-t) [1, 8] of 4140 ng·h/mL. For the same compound, the Vd/F ([1]; whole blood, 200 mg, 200 mg BID, Cycle 1 Day 15 (multiple dose), N = 7, geometric mean (% CV)) was 129 L, the AUC(0-inf) [1, 9] was 4210 ng·h/mL and the Cmax [1, 9] was 1010 ng/mL. For the same compound, the half-life ([1]; whole blood, 200 mg, 200 mg BID, Cycle 1 Day 15 (multiple dose), blood, N = 7, geometric mean (range), read-out: t1/2 (converted)) was 1.83 h, the Tmax ([1]; whole blood, 200 mg, 200 mg BID, Cycle 1 Day 15 (multiple dose), blood, N = 7, median (range), read-out: tmax) was 1.97 h and the AUC(0-t) [1, 9] was 4100 ng·h/mL. The “C-peptide, mean percentage change from baseline” value ([2]; 150 mg) was 106.0%, the “Glucose, mean percentage change from baseline” value ([2]; 150 mg) was 23.6% and the “C-peptide, mean percentage change from baseline” value ([2]; 200 mg) was 165.4%. The “Glucose, mean percentage change from baseline” value ([2]; 200 mg) was 24.7%, the “Best overall response of stable disease” value (advanced malignancies; 150 mg) was 3 patients and the “Best overall response of stable disease” value (advanced malignancies; 200 mg) was 2 patients. The “Progressive disease as best response” value (advanced malignancies; 200 mg BID) was 4 patients, the Disease control rate (advanced malignancies; 5 of 9 evaluable patients) was 55.6% and the “Complete response (CR) or partial response (PR)” value (advanced malignancies; 9 evaluable patients, RECIST v1.1) was “No complete response (CR) or partial response (PR)”. For the same compound, the “Best overall response of stable disease” value (advanced malignancies; both dose levels, 9 evaluable patients) was 5 patients, the Target inhibition (PI3K/mTOR) was ≥ 90% and the “Inhibition of the metabolic clearance of drugs metabolized through CYP3A4” value (CYP3A4) was “weak inhibitor”. For the same compound, the Solubility [3] was “good solubility”, the “Inhibition of phosphorylation of the PI3K/AKT/mTOR downstream pathway” value [4] was “dose-dependent inhibition” and the Antitumor activity (tumor xenograft models) was “potent antitumor activity”. The Frequency of stomatitis ([5]; 200-mg dose, global study) was 33.3%, the Disease control rate ([5]; global Phase 1 study) was 34.0% and the “Interstitial lung disease (ILD)” value ([5]; global study) was “None of the patients experienced ILD”. The “Safe and tolerable dose as monotherapy (global recommended dose)” value ([5]; human, in vivo) was “up to 200 mg”.
